The target in assay [1] is Acetyl-CoA carboxylase 2 (Homo sapiens, UniProt O00763). In words: Inhibition of ACC2.
The target of assay [2] is Acetyl-CoA carboxylase 1 (Homo sapiens, UniProt Q13085). In words: Inhibition of ACC1.
The species entered for assay [3] is Homo sapiens. As to the kind of experiment: Selectivity for human ACC2 over ACC1.

The structures appear in SMILES notation.

For 28 molecules, IC50 and Ratio IC50 results are on record in ChEMBL document CHEMBL1139094, “The synthesis and structure-activity relationship studies of selective acetyl-CoA carboxylase inhibitors containing 4-(thiazol-5-yl)but-3-yn-2-amino motif: polar region modifications” (Bioorg Med Chem Lett, 2007).

Sequence of Acetyl-CoA carboxylase 2 (O00763 whole entry): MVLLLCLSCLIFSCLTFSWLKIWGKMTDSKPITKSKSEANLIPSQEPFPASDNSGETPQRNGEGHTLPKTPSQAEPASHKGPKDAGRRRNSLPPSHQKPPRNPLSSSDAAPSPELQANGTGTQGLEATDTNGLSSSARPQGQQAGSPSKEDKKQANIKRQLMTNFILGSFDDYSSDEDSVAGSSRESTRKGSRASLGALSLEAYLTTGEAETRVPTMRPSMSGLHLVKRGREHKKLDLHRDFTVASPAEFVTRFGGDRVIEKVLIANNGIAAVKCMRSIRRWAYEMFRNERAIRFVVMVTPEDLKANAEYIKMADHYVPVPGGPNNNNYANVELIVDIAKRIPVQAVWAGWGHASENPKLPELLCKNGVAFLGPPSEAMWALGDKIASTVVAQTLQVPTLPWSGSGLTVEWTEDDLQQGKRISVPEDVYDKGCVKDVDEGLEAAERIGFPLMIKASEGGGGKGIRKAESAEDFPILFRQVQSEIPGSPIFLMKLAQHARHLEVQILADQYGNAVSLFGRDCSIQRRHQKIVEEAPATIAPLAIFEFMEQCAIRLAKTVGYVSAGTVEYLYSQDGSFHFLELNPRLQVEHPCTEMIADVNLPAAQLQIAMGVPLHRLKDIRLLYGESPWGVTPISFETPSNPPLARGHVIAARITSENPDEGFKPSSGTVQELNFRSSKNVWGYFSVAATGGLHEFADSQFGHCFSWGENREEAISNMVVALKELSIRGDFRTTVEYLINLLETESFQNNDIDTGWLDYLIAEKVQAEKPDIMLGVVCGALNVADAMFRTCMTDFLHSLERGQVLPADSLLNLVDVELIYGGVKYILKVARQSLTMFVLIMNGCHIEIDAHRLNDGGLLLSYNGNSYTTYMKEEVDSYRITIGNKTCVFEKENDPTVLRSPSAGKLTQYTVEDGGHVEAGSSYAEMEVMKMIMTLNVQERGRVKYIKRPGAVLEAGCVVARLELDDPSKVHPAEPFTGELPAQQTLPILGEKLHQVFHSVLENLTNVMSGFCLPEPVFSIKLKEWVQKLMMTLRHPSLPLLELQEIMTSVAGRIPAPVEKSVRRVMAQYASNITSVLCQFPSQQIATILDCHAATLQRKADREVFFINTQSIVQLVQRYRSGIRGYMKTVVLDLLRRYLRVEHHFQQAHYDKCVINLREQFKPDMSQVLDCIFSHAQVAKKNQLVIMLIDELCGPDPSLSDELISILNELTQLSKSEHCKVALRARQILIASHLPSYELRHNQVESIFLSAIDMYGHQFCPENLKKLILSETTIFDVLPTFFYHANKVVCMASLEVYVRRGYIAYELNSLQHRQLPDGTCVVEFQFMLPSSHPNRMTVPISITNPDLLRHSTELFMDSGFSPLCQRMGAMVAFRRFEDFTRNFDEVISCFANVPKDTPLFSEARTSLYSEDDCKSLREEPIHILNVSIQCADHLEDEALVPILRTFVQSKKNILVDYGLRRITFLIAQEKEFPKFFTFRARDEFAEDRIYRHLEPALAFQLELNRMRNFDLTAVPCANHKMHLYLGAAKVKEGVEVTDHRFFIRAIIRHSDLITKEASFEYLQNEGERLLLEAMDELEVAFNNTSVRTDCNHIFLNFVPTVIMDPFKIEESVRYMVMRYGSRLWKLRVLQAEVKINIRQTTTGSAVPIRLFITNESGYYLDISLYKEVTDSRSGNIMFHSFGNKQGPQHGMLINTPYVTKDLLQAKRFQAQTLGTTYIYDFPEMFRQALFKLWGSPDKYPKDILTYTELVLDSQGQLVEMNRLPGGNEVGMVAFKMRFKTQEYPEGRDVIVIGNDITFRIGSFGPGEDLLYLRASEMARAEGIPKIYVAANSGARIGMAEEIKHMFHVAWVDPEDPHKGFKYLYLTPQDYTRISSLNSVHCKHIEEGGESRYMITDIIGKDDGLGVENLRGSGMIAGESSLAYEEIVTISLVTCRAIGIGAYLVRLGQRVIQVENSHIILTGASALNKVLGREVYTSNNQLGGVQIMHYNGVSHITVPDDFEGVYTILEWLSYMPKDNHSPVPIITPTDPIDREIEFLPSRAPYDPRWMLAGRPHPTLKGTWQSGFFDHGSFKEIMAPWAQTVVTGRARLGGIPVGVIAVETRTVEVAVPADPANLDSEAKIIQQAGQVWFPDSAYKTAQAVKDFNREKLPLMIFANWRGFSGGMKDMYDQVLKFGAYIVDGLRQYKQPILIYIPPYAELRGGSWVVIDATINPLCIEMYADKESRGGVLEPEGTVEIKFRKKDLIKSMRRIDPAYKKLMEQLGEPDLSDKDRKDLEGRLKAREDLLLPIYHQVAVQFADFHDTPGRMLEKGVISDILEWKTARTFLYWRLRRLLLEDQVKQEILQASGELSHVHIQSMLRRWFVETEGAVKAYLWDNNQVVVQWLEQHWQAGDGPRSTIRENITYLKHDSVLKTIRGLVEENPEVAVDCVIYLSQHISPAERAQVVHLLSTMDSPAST

Take `CC(C#Cc1cnc(Oc2ccc(OC(C)C)cc2)s1)NC(=O)[C@@H]1CCCN1` (stereo partly drawn): the IC50 in assay [1] and in assay [2] was more than 30000 nM each time. On to `CC(C#Cc1cnc(Oc2ccc(OC(C)C)cc2)s1)NC(=O)ON` (stereo not drawn), for which the IC50 is 680 nM in assay [1] and more than 30000 nM in assay [2].

As for `CC(C#Cc1cnc(Oc2ccc(OC(C)C)cc2)s1)NC(=O)C1CCOC1` (stereo not drawn), the IC50 in assay [1] is 220 nM; in assay [2], more than 30000 nM. For `CC(=O)NC(C#Cc1cnc(Oc2ccc(OC(C)C)cc2)s1)CO` (stereo not drawn) the same measures were 910 nM and more than 30000 nM. For `CC(=O)NC(C#Cc1cnc(Oc2ccc(OC(C)C)cc2)s1)c1ccccc1` (stereo not drawn), the IC50 in assay [1] and in assay [2] was more than 30000 nM in each case. Turning to `CNC(=O)NC(C)C#Cc1cnc(Oc2ccc(OC(C)C)cc2)s1` (stereo not drawn), the IC50 in assay [1] worked out at 32 nM. With `COC(=O)C(=O)NC(C)C#Cc1cnc(Oc2ccc(OC(C)C)cc2)s1` (stereo not drawn), the IC50 in assay [1] was 850 nM; in assay [2], more than 30000 nM. As for `CC(=O)NC(C#Cc1cnc(Oc2ccc(OC(C)C)cc2)s1)C1CC1` (stereo not drawn), the 50% inhibitory concentration (IC50) in assay [1] stood at 880 nM.

On to `CC(C)CONC(=O)NC(C)C#Cc1cnc(Oc2ccc(OC(C)C)cc2)s1` (stereo not drawn), for which the IC50 in assay [1] was 20500 nM; in assay [2] it was more than 30000 nM. Take `CC(C#Cc1cnc(Oc2ccc(Oc3ccccc3)cc2)s1)N(O)C(N)=O` (stereo not drawn): in assay [3], the Ratio IC50 is more than 1000. The same molecule yielded an IC50 in assay [1] of 75 nM. Regarding `CC(C#Cc1cnc(Oc2ccc(OC(C)C)cc2)s1)NC(=O)NO` (stereo not drawn), the figures for the IC50 in assay [1] and in assay [2] were 330 nM and more than 30000 nM, respectively. For `CC(C#Cc1cnc(Oc2ccc(Oc3ccccc3)cc2)s1)Nc1nc2ccccc2s1` (stereo not drawn) the same measures were more than 30000 nM and more than 30000 nM. For `CC(C#Cc1cnc(Oc2ccc(OC(C)C)cc2)s1)NC(=O)NCC(N)=O` (stereo not drawn), the figures for the 50% inhibitory concentration (IC50) in assay [1] and in assay [2] were 920 nM and more than 30000 nM, respectively.

As for `CC(C#Cc1cnc(Oc2ccc(OC(C)C)cc2)s1)NC(=O)C(=O)O` (stereo not drawn), the IC50 in assay [1] and in assay [2] was more than 30000 nM each time. As to `CC(C#Cc1cnc(Oc2ccc(Oc3ccccc3)cc2)s1)Nc1ccon1` (stereo not drawn), the IC50 in assay [1] was 42 nM; in assay [2], 5020 nM.

As to `CC(C#Cc1cnc(Oc2ccc(Oc3ccccc3)cc2)s1)Nc1nccs1` (stereo not drawn), the half-inhibitory concentration (IC50) in assay [1] was found to be 690 nM; in assay [2], 10700 nM. The matching figures for `CCC(C#Cc1cnc(Oc2ccc(OC(C)C)cc2)s1)NC(C)=O` (stereo not drawn): 530 nM and more than 30000 nM.

`Cc1noc(NC(C)C#Cc2cnc(Oc3ccc(Oc4ccccc4)cc3)s2)c1C` (stereo not drawn): the IC50 in assay [1] was 38 nM; in assay [2], more than 30000 nM. For `CC(C#Cc1cnc(Oc2ccc(OC(C)C)cc2)s1)NC(=O)N1CCOCC1` (stereo not drawn) the same measures were 670 nM and more than 30000 nM. As for `CC(C#Cc1cnc(Oc2ccc(OC(C)C)cc2)s1)NC(N)=O` (stereo not drawn), the IC50 in assay [1] is 37 nM; in assay [2] it was more than 30000 nM.

In the case of `CCn1ccc(NC(C)C#Cc2cnc(Oc3ccc(Oc4ccccc4)cc3)s2)n1` (stereo not drawn), the IC50 was 440 nM in assay [1] and more than 30000 nM in assay [2]. For `Cc1cc(NC(C)C#Cc2cnc(Oc3ccc(Oc4ccccc4)cc3)s2)on1` (stereo not drawn) the same measures were 57 nM and more than 30000 nM. For `CC(C#Cc1cnc(Oc2ccc(OC(C)C)cc2)s1)NC(=O)C1CCCC1` (stereo not drawn) the same measures were 570 nM and more than 30000 nM. In the case of `CC(=O)NCC#Cc1cnc(Oc2ccc(OC(C)C)cc2)s1`, the IC50 in assay [1] stood at 1860 nM. `CC(C#Cc1cnc(Oc2ccc(Oc3ccccc3)cc2)s1)Nc1ncc[nH]1` (stereo not drawn): the IC50 in assay [1] is 3980 nM; in assay [2], more than 30000 nM. For `Cc1cc(NC(C)C#Cc2cnc(Oc3ccc(Oc4ccccc4)cc3)s2)no1` (stereo not drawn) the same measures were 83 nM and more than 30000 nM. As for `CC(C#Cc1cnc(Oc2ccc(OC(C)C)cc2)s1)NC(=O)N(C)C` (stereo not drawn), the half-maximal inhibitory concentration (IC50) in assay [1] was 71 nM; in assay [2], more than 30000 nM.

In the case of `CC(=O)NC(C)(C)C#Cc1cnc(Oc2ccc(OC(C)C)cc2)s1`, the IC50 was 500 nM in assay [1] and more than 30000 nM in assay [2].
